Laboratory results as given in patent publication US20260256925A1, “INDAZOLE DERIVATIVES AS ESTROGEN RECEPTOR DEGRADERS” (REGENTS OF THE UNIVERSITY OF MICHIGAN, priority 2022, published 2026).

biological target: T1, ER (Homo sapiens, UniProt P03372); experiment: Western blot analysis (compounds B1-B126); type: cell-based; conditions: ER degradation, read-out: Traditional Western Degradation potency (DC50)
T1 construct: endogenous in cells; probably T47D or MCF-7
T1 sequence (P03372 1-595): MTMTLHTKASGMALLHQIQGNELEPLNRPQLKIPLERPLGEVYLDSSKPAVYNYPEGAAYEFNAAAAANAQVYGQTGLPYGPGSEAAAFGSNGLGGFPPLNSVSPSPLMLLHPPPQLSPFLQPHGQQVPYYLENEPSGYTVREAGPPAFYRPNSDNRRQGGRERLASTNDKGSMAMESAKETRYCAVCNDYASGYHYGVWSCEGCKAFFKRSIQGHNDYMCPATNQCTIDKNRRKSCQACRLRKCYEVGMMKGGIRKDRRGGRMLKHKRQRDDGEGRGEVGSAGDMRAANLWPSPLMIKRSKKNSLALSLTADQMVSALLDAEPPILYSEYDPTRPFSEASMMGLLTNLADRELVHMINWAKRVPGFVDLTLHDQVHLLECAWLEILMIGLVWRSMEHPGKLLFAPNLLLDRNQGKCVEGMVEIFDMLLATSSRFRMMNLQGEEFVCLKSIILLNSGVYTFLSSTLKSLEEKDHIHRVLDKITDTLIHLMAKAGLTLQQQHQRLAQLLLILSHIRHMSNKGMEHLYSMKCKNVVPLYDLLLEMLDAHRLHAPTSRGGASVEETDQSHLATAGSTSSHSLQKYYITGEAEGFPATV
Description: Western Blot Analysis. The cells that are treated with the compounds are lysed in Radioimmunoprecipitation Assay Protein Lysis and Extraction Buffer (e.g., 25 mmol/L Tris.HCl, pH 7.6, 150 mmol/L NaCl, 1% Nonidet P-40, 1% sodium deoxycholate, and 0.1% sodium dodecyl sulfate) containing proteinase inhibitor cocktail. Equal amounts of total protein are electrophoresed through 10% SDS-polyacrylamide gels after determination of protein concentration by BCA assay. The separated protein bands are transferred onto PVDF membranes and blotted against different antibodies. The blots are scanned, and the band intensities are quantified (e.g., by using GelQuant.NET software provided by biochemlabsolutions.com). The relative mean intensity of target proteins is expressed after normalization to the intensity of glyceraldehyde-3-phosphate dehydrogenase bands.
Western Blot Analysis. Western blot analysis was performed essentially as described previously. The cells treated with indicated compounds were lysed in Radioimmunoprecipitation Assay Protein Lysis and Extraction Buffer (25 mmol/L Tris.HCl, pH 7.6, 150 mmol/L NaCl, 1% Nonidet P-40, 1% sodium deoxycholate, and 0.1% sodium dodecyl sulfate) containing proteinase inhibitor cocktail (Roche Diagnostics, Mannheim, Germany). Equal amounts of total protein were electrophoresed through 10% SDS-polyacrylamide gels after determination of protein concentration by BCA assay (Fisher Scientific, Pittsburgh, PA). The separated protein bands were transferred onto PVDF membranes (GE Healthcare Life Sciences, Marlborough, MA) and blotted against different antibodies, as indicated. The blots were scanned, and the band intensities were quantified using GelQuant.NET software provided by biochemlabsolutions.com. The relative mean intensity of target proteins was expressed after normalization to the intensity of glyceraldehyde-3-phosphate dehydrogenase bands.

Row | Structure (SMILES) | DC50 [nM]
1 | C[C@@H]1Cc2c(ccc3[nH]ncc23)[C@@H](c2ccc(C3=CCC(C(=O)N4CCC(N5Cc6cc7c(cc6C5)C(=O)N(C5CCC(=O)NC5=O)C7=O)CC4)CC3)cn2)N1CC(F)(F)F (stereo partly drawn) [Compound B11, 2-(2,6-dioxopiperidin-3-yl)-6-(1-(4-(6-((6S,8R)-8-methyl-7-(2,2,2-trifluoroethyl)-6,7,8,9-tetrahydro-3H-pyrazolo[4,3-f]isoquinolin-6-yl)pyridin-3-yl)cyclohex-3-ene-1-carbonyl)piperidin-4-yl)-6,7-dihydropyrrolo[3,4-f]isoindole-1,3(2H,5H)-dione] | < 10
2 | C[C@@H]1Cc2c(ccc3[nH]ncc23)[C@@H](c2c(F)cc([C@H]3CC[C@@H](C(=O)N4CCC(N5Cc6cc7c(cc6C5)C(=O)N(C5CCC(=O)NC5=O)C7=O)CC4)CC3)cc2F)N1CC(F)F (stereo partly drawn) [Compound B1, 6-(1-((1R,4s)-4-(4-((6S,8R)-7-(2,2-difluoroethyl)-8-methyl-6,7,8,9-tetrahydro-3H-pyrazolo[4,3-f]isoquinolin-6-yl)-3,5-difluorophenyl)cyclohexane-1-carbonyl)piperidin-4-yl)-2-(2,6-dioxopiperidin-3-yl)-6,7-dihydropyrrolo[3,4-f]isoindole-1,3(2H,5H)-dione] | < 10
3 | C[C@@H]1Cc2c(ccc3[nH]ncc23)[C@@H](c2c(F)cc([C@H]3CC[C@H](C(=O)N4CCC(N5Cc6cc7c(cc6C5)C(=O)N(C5CCC(=O)NC5=O)C7=O)CC4)CC3)cc2F)N1CC(F)F (stereo partly drawn) [Compound B2, 6-(1-((1S,4r)-4-(4-((6S,8R)-7-(2,2-difluoroethyl)-8-methyl-6,7,8,9-tetrahydro-3H-pyrazolo[4,3-f]isoquinolin-6-yl)-3,5-difluorophenyl)cyclohexane-1-carbonyl)pipcridin-4-yl)-2-(2,6-dioxopiperidin-3-yl)-6,7-dihydropyrrolo[3,4-f]isoindole-1,3(2H,5H)-dione] | < 10
4 | C[C@@H]1Cc2c(ccc3[nH]ncc23)[C@@H](c2c(F)cc(N3CCC(CN4CCC(N5Cc6cc7c(cc6C5=O)CN(C5CCC(=O)NC5=O)C7=O)CC4)CC3)cc2F)N1CC(F)F (stereo partly drawn) [Compound B19, 2-(1-((1-(4-((6S,8R)-7-(2,2-difluoroethyl)-8-methyl-6,7,8,9-tetrahydro-3H-pyrazolo[4,3-f]isoquinolin-6-yl)-3,5-difluorophenyl)piperidin-4-yl)methyl)piperidin-4-yl)-6-(2,6-dioxopiperidin-3-yl)-2,3,6,7-tetrahydropyrrolo[3,4-f]isoindole-1,5-dione] | < 10
5 | C[C@@H]1Cc2c(ccc3[nH]ncc23)[C@@H](c2c(F)cc(C3CCN(C(=O)[C@H]4CC[C@@H](N5Cc6cc7c(cc6C5)C(=O)N(C5CCC(=O)NC5=O)C7=O)CC4)CC3)cc2F)N1CC(F)F (stereo partly drawn) [Compound B8, 6-((1R,4s)-4-(4-(4-((6S,8R)-7-(2,2-difluoroethyl)-8-methyl-6,7,8,9-tetrahydro-3H-pyrazolo[4,3-f]isoquinolin-6-yl)-3,5-difluorophenyl)piperidine-1-carbonyl)cyclohexyl)-2-(2,6-dioxopiperidin-3-yl)-6,7-dihydropyrrolo[3,4-f]isoindole-1,3(2H,5H)-dione] | > 100
6 | C[C@@H]1Cc2c(ccc3[nH]ncc23)[C@@H](c2c(F)cc(N3CCC(C(=O)N4CCC(N5Cc6cc7c(cc6C5)C(=O)N(C5CCC(=O)NC5=O)C7=O)CC4)CC3)cc2F)N1CC(F)F (stereo partly drawn) [Compound B6, 6-(1-(1-(4-((6S,8R)-7-(2,2-difluoroethyl)-8-methyl-6,7,8,9-tetrahydro-3H-pyrazolo[4,3-f]isoquinolin-6-yl)-3,5-difluorophenyl)piperidine-4-carbonyl)piperidin-4-yl)-2-(2,6-dioxopiperidin-3-yl)-6,7-dihydropyrrolo[3,4-f]isoindole-1,3(2H,5H)-dione] | < 10
7 | COc1c2c(cc3c1C(=O)N(C1CCC(=O)NC1=O)C3=O)CN(CC(=O)N1CCC3(CC1)CCN(c1cc(F)c([C@@H]4c5ccc6[nH]ncc6c5C[C@@H](C)N4CC(F)F)c(F)c1)CC3)C2 (stereo partly drawn) [Compound B17, 6-(2-(9-(4-((6S,8R)-7-(2,2-difluoroethyl)-8-methyl-6,7,8,9-tetrahydro-3H-pyrazolo[4,3-f]isoquinolin-6-yl)-3,5-diazaspiro[5.5]undecan-3-yl)-2-difluorophenyl)-3,9-oxoethyl)-2-(2,6-dioxopiperidin-3-yl)-4-methoxy-6,7-dihydropyrrolo[3,4-f]isoindole-1,3(2H,5H)-dione] | < 10
8 | C[C@@H]1Cc2c(ccc3[nH]ncc23)[C@@H](c2c(F)cc(C3CCN(C(=O)[C@H]4CC[C@H](N5Cc6cc7c(cc6C5)C(=O)N(C5CCC(=O)NC5=O)C7=O)CC4)CC3)cc2F)N1CC(F)F (stereo partly drawn) [Compound B7, 6-((1S,4r)-4-(4-(4-((6S,8R)-7-(2,2-difluoroethyl)-8-methyl-6,7,8,9-tetrahydro-3H-pyrazolo[4,3-f]isoquinolin-6-yl)-3,5-difluorophenyl)piperidine-1-carbonyl)cyclohexyl)-2-(2,6-dioxopiperidin-3-yl)-6,7-dihydropyrrolo[3,4-f]isoindole-1,3(2H,5H)-dione] | > 100
9 | C[C@@H]1Cc2c(ccc3[nH]ncc23)[C@@H](c2c(F)cc(N3CC4(CCN(C(=O)CN5Cc6cc7c(cc6C5)C(=O)N(C5CCC(=O)NC5=O)C7=O)CC4)C3)cc2F)N1CC(F)F (stereo partly drawn) [Compound B13, 6-(2-(2-(4-((6S,8R)-7-(2,2-difluoroethyl)-8-methyl-6,7,8,9-tetrahydro-3H-pyrazolo[4,3-f]isoquinolin-6-yl)-3,5-difluorophenyl)-2,7-diazaspiro[3.5]nonan-7-yl)-2-oxoethyl)-2-(2,6-dioxopiperidin-3-yl)-6,7-dihydropyrrolo[3,4-f]isoindole-1,3(2H,5H)-dione] | < 10
10 | C[C@@H]1Cc2c(ccc3[nH]ncc23)[C@@H](c2c(F)cc(N3CCC(CN4CCN(c5ccc6c(c5)C(=O)N(C5CCC(=O)NC5=O)C6=O)CC4)CC3)cc2F)N1CC(F)F (stereo partly drawn) [Compound B65, 5-(4-((1-(4-((6S,8R)-7-(2,2-difluoroethyl)-8-methyl-6,7,8,9-tetrahydro-3H-pyrazolo[4,3-f]isoquinolin-6-yl)-3,5-difluorophenyl)piperidin-4-yl)methyl)piperazin-1-yl)-2-(2,6-dioxopiperidin-3-yl)isoindoline-1,3-dione] | 10 to 100
11 | C[C@@H]1Cc2c(ccc3[nH]ncc23)[C@@H](c2c(F)cc(N3CCC(CN4CCN5c6ccc7c(c6OC[C@@H]5C4)CN(C4CCC(=O)NC4=O)C7=O)CC3)cc2F)N1CC(F)F (stereo partly drawn) [Compound B105, 3-((S)-7-((1-(4-((6S,8R)-7-(2,2-difluoroethyl)-8-methyl-6,7,8,9-tetrahydro-3H-pyrazolo[4,3-f]isoquinolin-6-yl)-3,5-difluorophenyl)piperidin-4-yl)methyl)-1-oxo-1,3,5,5a,6,7,8,9-octahydro-2H-pyrazino[1′,2′:4,5][1,4]oxazino[2,3-e]isoindol-2-yl)piperidine-2,6-dione] | > 100
12 | C[C@@H]1Cc2c(ccc3[nH]ncc23)[C@@H](c2c(F)cc(N3CCC4(CCN(C(=O)CN5Cc6cc7c(cc6C5)C(=O)N(C5CCC(=O)NC5=O)C7=O)CC4)C3)cc2F)N1CC(F)F (stereo partly drawn) [Compound B12, 6-(2-(2-(4-((6S,8R)-7-(2,2-difluoroethyl)-8-methyl-6,7,8,9-tetrahydro-3H-pyrazolo[4,3-f]isoquinolin-6-yl)-3,5-difluorophenyl)-2,8-diazaspiro[4.5]decan-8-yl)-2-oxoethyl)-2-(2,6-dioxopiperidin-3-yl)-6,7-dihydropyrrolo[3,4-f]isoindole-1,3(2H,5H)-dione] | 10 to 100
13 | C[C@@H]1Cc2c(ccc3[nH]ncc23)[C@@H](c2c(F)cc(N3CCC4(CC3)CN(C(=O)CN3Cc5cc6c(cc5C3)C(=O)N(C3CCC(=O)NC3=O)C6=O)C4)cc2F)N1CC(F)F (stereo partly drawn) [Compound B4, 6-(2-(7-(4-((6S,8R)-7-(2,2-difluoroethyl)-8-methyl-6,7,8,9-tetrahydro-3H-pyrazolo[4,3-f]isoquinolin-6-yl)-3,5-difluorophenyl)-2,7-diazaspiro[3.5]nonan-2-yl)-2-oxoethyl)-2-(2,6-dioxopiperidin-3-yl)-6,7-dihydropyrrolo[3,4-f]isoindole-1,3(2H,5H)-dione] | < 10
